Measurements as given in US5294539A, “Nitrate reductase from yeasts, the preparation and use thereof” (Merck Patent Gesellschaft mit beschrankter Haftung, priority 1990, dated 1994).

Molecular target: NADH-dependent nitrate reductase ([Candida] boidinii, UniProt A0ACB5TRL5)
Sequence (A0ACB5TRL5 entry or part of it): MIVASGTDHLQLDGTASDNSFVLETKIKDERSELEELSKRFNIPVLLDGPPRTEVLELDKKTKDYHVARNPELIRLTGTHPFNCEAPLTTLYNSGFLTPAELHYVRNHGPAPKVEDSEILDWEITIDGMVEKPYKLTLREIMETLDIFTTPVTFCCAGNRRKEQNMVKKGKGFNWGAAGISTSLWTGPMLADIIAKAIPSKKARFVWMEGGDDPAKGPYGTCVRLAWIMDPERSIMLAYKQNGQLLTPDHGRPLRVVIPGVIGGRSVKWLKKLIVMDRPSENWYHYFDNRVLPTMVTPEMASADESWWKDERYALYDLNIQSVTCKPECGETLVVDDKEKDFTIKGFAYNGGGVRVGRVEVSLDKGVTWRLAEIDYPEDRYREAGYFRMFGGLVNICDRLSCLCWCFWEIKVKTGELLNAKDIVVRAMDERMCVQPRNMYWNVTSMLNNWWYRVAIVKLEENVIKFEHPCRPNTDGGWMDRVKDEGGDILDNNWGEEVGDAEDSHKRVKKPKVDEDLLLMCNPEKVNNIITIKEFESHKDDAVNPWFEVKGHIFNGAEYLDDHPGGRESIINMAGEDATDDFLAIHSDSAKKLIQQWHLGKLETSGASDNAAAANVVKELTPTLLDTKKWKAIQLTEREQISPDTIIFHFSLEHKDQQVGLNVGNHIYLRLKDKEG

For O=NO [nitrite], the End-product inhibition was “up to 50%”.
